Experiments:
STEME [1] = assay: Post-emergence action against STEME, 1.28 kg/ha; assay type: in vivo, Stellaria media; details: dosage 1280 g/ha, visual rating about 3 weeks after treatment vs untreated controls (100% = plants died)
Procedure, shortened: (§1)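 Greenhouse pot test, sandy loam; weeds sprayed post-emergence at one-leaf stage (2–3 weeks after sowing) with WP or EC formulation plus 0.5% additive, 600 l/ha water. Visual rating after about 3 weeks versus untreated controls, 100% = plants dead, 0% = like control.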

LOLRI [2] = assay: Post-emergence action against LOLRI, 1.28 kg/ha; assay type: in vivo, Lolium rigidum; details: dosage 1280 g/ha, visual rating about 3 weeks after treatment vs untreated controls
Procedure, shortened: as §1

SETVI [3] = assay: Pre-emergence action against SETVI, 1280 g/ha; assay type: in vivo, Setaria viridis; details: visual scoring after about 3 weeks vs untreated controls, 100% = plants have died, 0% = like control plants
Procedure, shortened: (§2)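 Greenhouse pre-emergence test on sown seeds in sandy loam; soil-surface spray of formulated compound with 0.5% additive at 600 L/ha water. Scored visually, % vs untreated, after about 3 weeks.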

POLCO = assay: Pre-emergence action at 320 g/ha against POLCO; assay type: in vivo, Fallopia convolvulus (Polygonum convolvulus); details: visual scoring after about 3 weeks vs untreated controls
Procedure, shortened: (§3)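 Weed seeds sown in pots and covered with soil; compounds formulated as WP or EC were sprayed onto the soil surface as aqueous suspension or emulsion with 0.5% additive at 600 l/ha water. Pots kept in greenhouse; activity scored visually after about 3 weeks versus untreated controls (100% = plants dead, 0% = like control).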

VIOTR = assay: Pre-emergence action at 320 g/ha against VIOTR; assay type: in vivo, Viola tricolor; details: dosage 320 g/ha
Procedure, shortened: as §3

AMARE [4] = assay: Pre-emergence action against AMARE, 1280 g/ha; assay type: in vivo, Amaranthus retroflexus; details: scored visually after about 3 weeks vs untreated controls (100% = plants have died)
Procedure, shortened: as §2

ABUTH [5] = assay: Pre-emergence action at 320 g/ha against ABUTH; assay type: in vivo, Abutilon theophrasti; details: greenhouse, scored visually after about 3 weeks vs untreated controls, 100% = plants have died, 0% = like control plants
Text: b) Seeds of monocotyledonous and dicotyledonous weed plants and crop plants are placed in plastic or organic planting pots and covered with soil. The compounds of the invention, formulated in the form of wettable powders (WP) or as emulsion concentrates (EC), are then applied onto the surface of the covering soil as aqueous suspension or emulsion with addition of 0.5% additive at a water application rate of 600 l/ha (converted). After the treatment, the pots are placed in a greenhouse and kept under good growth conditions for the trial plants. After about 3 weeks, the effect of the preparations is scored visually in comparison with untreated controls as percentages. For example, 100% activity=the plants have died, 0% activity=like control plants. Tables 13 to 26 below show the effects of selected compounds of the general formula (I) on various harmful plants and at an application rate corresponding to 320 g/ha, which were obtained by the experimental procedure mentioned above.

POAAN [6] = assay: Pre-emergence action against POAAN, 1280 g/ha; assay type: in vivo, Poa annua; details: visual scoring after about 3 weeks vs untreated controls, 100% = plants have died, 0% = like control plants
Procedure, shortened: as §2

MATIN [7] = assay: Pre-emergence action against MATIN, 1280 g/ha; assay type: in vivo, Tripleurospermum inodorum (Matricaria inodora); details: scored visually after about 3 weeks vs untreated controls (100% = plants have died)
Procedure, shortened: as §2

ALOMY [8] = assay: Pre-emergence action against ALOMY, 1280 g/ha; assay type: in vivo, Alopecurus myosuroides; details: visual scoring after about 3 weeks vs untreated controls, 100% = plants have died, 0% = like control plants
Procedure, shortened: as §2

STEME [9] = assay: Pre-emergence action against STEME, 1280 g/ha; assay type: in vivo, Stellaria media; details: scored visually after about 3 weeks vs untreated controls (100% = plants have died)
Procedure, shortened: as §2

DIGSA [10] = assay: Pre-emergence action against DIGSA, 1280 g/ha; assay type: in vivo, Digitaria sanguinalis; details: visual scoring after about 3 weeks vs untreated controls, 100% = plants have died, 0% = like control plants
Procedure, shortened: as §2

MATIN [11] = assay: Pre-emergence action at 320 g/ha against MATIN; assay type: in vivo, Tripleurospermum inodorum (Matricaria inodora); details: visual scoring after about 3 weeks vs untreated controls
Procedure, shortened: as §3

MATIN [12] = assay: Post-emergence action against MATIN, 1.28 kg/ha; assay type: in vivo, Tripleurospermum inodorum (Matricaria inodora); details: dosage 1280 g/ha, visual rating about 3 weeks after treatment vs untreated controls (100% = plants died)
Procedure, shortened: as §1

KCHSC = assay: Pre-emergence action against KCHSC, 1280 g/ha; assay type: in vivo, Bassia scoparia; details: scored visually after about 3 weeks vs untreated controls (100% = plants have died)
Procedure, shortened: as §2

ECHCG [13] = assay: Pre-emergence action against ECHCG, 1280 g/ha; assay type: in vivo, Echinochloa crus-galli; details: visual scoring after about 3 weeks vs untreated controls, 100% = plants have died, 0% = like control plants
Procedure, shortened: as §2

ABUTH [14] = assay: Post-emergence action against ABUTH, 1.28 kg/ha; assay type: in vivo, Abutilon theophrasti; details: dosage 1280 g/ha, visual rating about 3 weeks after treatment vs untreated controls (100% = plants died)
Procedure, shortened: as §1

DIGSA [15] = assay: Post-emergence action against DIGSA, 1.28 kg/ha; assay type: in vivo, Digitaria sanguinalis; details: dosage 1280 g/ha, visual rating about 3 weeks after treatment vs untreated controls
Procedure, shortened: as §1

POAAN [16] = assay: Post-emergence action against POAAN, 1.28 kg/ha; assay type: in vivo, Poa annua; details: dosage 1280 g/ha, visual rating about 3 weeks after treatment vs untreated controls
Procedure, shortened: as §1

LOLRI [17] = assay: Pre-emergence action against LOLRI, 1280 g/ha; assay type: in vivo, Lolium rigidum; details: visual scoring after about 3 weeks vs untreated controls, 100% = plants have died, 0% = like control plants
Procedure, shortened: as §2

AVEFA = assay: Pre-emergence action at 320 g/ha against AVEFA; assay type: in vivo; details: visual scoring after about 3 weeks vs untreated controls
Procedure, shortened: as §3

ABUTH [18] = assay: Pre-emergence action against ABUTH, 1280 g/ha; assay type: in vivo, Abutilon theophrasti; details: scored visually after about 3 weeks vs untreated controls (100% = plants have died)
Procedure, shortened: as §2

ALOMY [19] = assay: Post-emergence action against ALOMY, 1.28 kg/ha; assay type: in vivo, Alopecurus myosuroides; details: dosage 1280 g/ha, visual rating about 3 weeks after treatment vs untreated controls
Procedure, shortened: as §1

VERPE [20] = assay: Pre-emergence action at 320 g/ha against VERPE; assay type: in vivo, Veronica persica; details: visual scoring after about 3 weeks vs untreated controls
Procedure, shortened: as §3

ALOMY [21] = assay: Pre-emergence action at 320 g/ha against ALOMY; assay type: in vivo, Alopecurus myosuroides; details: scored visually after about 3 weeks vs untreated controls (100% = plants have died)
Procedure, shortened: as §3

LOLRI [22] = assay: Pre-emergence action at 320 g/ha against LOLRI; assay type: in vivo, Lolium rigidum; details: visual scoring after about 3 weeks vs untreated controls
Procedure, shortened: as §3

DIGSA [23] = assay: Pre-emergence action at 320 g/ha against DIGSA; assay type: in vivo, Digitaria sanguinalis; details: visual scoring after about 3 weeks vs untreated controls
Procedure, shortened: as §3

ECHCG [24] = assay: Post-emergence action against ECHCG, 1.28 kg/ha; assay type: in vivo, Echinochloa crus-galli; details: dosage 1280 g/ha, visual rating about 3 weeks after treatment vs untreated controls
Procedure, shortened: as §1

PHBPU = assay: Pre-emergence action at 320 g/ha against PHBPU; assay type: in vivo; details: visual scoring after about 3 weeks vs untreated controls
Procedure, shortened: as §3

AMARE [25] = assay: Pre-emergence action at 320 g/ha against AMARE; assay type: in vivo, Amaranthus retroflexus; details: visual scoring after about 3 weeks vs untreated controls
Procedure, shortened: as §3

AMARE [26] = assay: Post-emergence action against AMARE, 1.28 kg/ha; assay type: in vivo, Amaranthus retroflexus; details: dosage 1280 g/ha, visual rating about 3 weeks after treatment vs untreated controls (100% = plants died)
Procedure, shortened: as §1

SETVI [27] = assay: Pre-emergence action at 320 g/ha against SETVI; assay type: in vivo, Setaria viridis; details: visual scoring after about 3 weeks vs untreated controls
Procedure, shortened: as §3

VERPE [28] = assay: Post-emergence action against VERPE, 1.28 kg/ha; assay type: in vivo, Veronica persica; details: dosage 1280 g/ha, visual rating about 3 weeks after treatment vs untreated controls (100% = plants died)
Procedure, shortened: as §1

VERPE [29] = assay: Pre-emergence action against VERPE, 1280 g/ha; assay type: in vivo, Veronica persica; details: scored visually after about 3 weeks vs untreated controls (100% = plants have died)
Procedure, shortened: as §2

SETVI [30] = assay: Post-emergence action against SETVI, 1.28 kg/ha; assay type: in vivo, Setaria viridis; details: dosage 1280 g/ha, visual rating about 3 weeks after treatment vs untreated controls
Procedure, shortened: as §1

ECHGC = assay: Pre-emergence action at 320 g/ha against ECHGC; assay type: in vivo, Echinochloa crus-galli; details: visual scoring after about 3 weeks vs untreated controls
Procedure, shortened: as §3

Structure (SMILES): N#CCCOC(=O)COc1nn(-c2ccccc2F)c(-c2ccc(F)nc2)c1Br [VII-104]
- Post-emergence action against STEME (STEME [1]): 90%
- Post-emergence action against LOLRI (LOLRI [2]): 100%
- Pre-emergence action against SETVI (SETVI [3]): 100%
- Pre-emergence action against POLCO in % (POLCO): 90%
- Pre-emergence action against VIOTR in % (VIOTR): 100%
- Pre-emergence action against AMARE (AMARE [4]): 100%
- Pre-emergence action at 320 g/ha against ABUTH in % (ABUTH [5]): 80%
- Pre-emergence action against POAAN (POAAN [6]): 100%
- Pre-emergence action against MATIN (MATIN [7]): 100%
- Pre-emergence action against ALOMY (ALOMY [8]): 100%
- Pre-emergence action against STEME (STEME [9]): 100%
- Pre-emergence action against DIGSA (DIGSA [10]): 100%
- Pre-emergence action against MATIN in % (MATIN [11]): 100%
- Post-emergence action against MATIN (MATIN [12]): 100%
- Pre-emergence action against KCHSC (KCHSC): 90%
- Pre-emergence action against ECHCG (ECHCG [13]): 100%
- Post-emergence action against ABUTH (ABUTH [14]): 90%
- Post-emergence action against DIGSA (DIGSA [15]): 100%
- Post-emergence action against POAAN (POAAN [16]): 100%
- Pre-emergence action against LOLRI (LOLRI [17]): 100%
- Pre-emergence action against AVEFA in % (AVEFA): 90%
- Pre-emergence action against ABUTH (ABUTH [18]): 90%
- Post-emergence action against ALOMY (ALOMY [19]): 100%
- Pre-emergence action against VERPE in % (VERPE [20]): 100%
- Pre-emergence action at 320 g/ha against ALOMY in % (ALOMY [21]): 100%
- Pre-emergence action against LOLRI in % (LOLRI [22]): 100%
- Pre-emergence action against DIGSA in % (DIGSA [23]): 100%
- Post-emergence action against ECHCG (ECHCG [24]): 100%
- Pre-emergence action against PHBPU in % (PHBPU): 100%
- Pre-emergence action against AMARE in % (AMARE [25]): 100%
- Post-emergence action against AMARE (AMARE [26]): 90%
- Pre-emergence action against SETVI in % (SETVI [27]): 100%
- Post-emergence action against VERPE (VERPE [28]): 90%
- Pre-emergence action against VERPE (VERPE [29]): 100%
- Post-emergence action against SETVI (SETVI [30]): 90%
- Pre-emergence action against ECHGC in % (ECHGC): 100%
